The values below come from EP0606463B1, “NEUROMEDIN B RECEPTOR ANTAGONISTS” (The Administrators of The Tulane Educational Fund, priority 1992, dated 1994).

Assay [1] addresses T1, CCKA receptors (Rattus norvegicus, UniProt P30551).
T1 construct: rat pancreas (CCKA receptor assay); from tissue; host or cells: rat pancreatic membranes
The assay is described as follows: CCKA receptor assay (125I-CCK-8, rat pancreatic membranes). The class given is binding. The conditions noted are these: at 1 µM.

Assay [2] has as its system PYY receptor. The assay is described as follows: PYY membrane receptor assay. The assay is classed as binding, rat. The settings on record: at 1 µM.
Assay [3] deals with TRH receptor. The assay is described as follows: TRH membrane assay. The assay is classed as binding, rat. The settings on record: at 1 µM.
Assay [4] concerns the target T2, CCKB (Rattus norvegicus, UniProt P30553).
T2 construct: rat cerebral cortex (CCKB, PYY, neurotensin); from tissue; host or cells: rat cerebral cortex membranes
The assay is described as follows: CCKB membrane receptor assay. The assay is classed as binding. The settings on record: at 1 µM.

Assay [5] has as its target T3, delta opioid (Rattus norvegicus, UniProt P33533).
T3 construct: rat forebrain (TRH, mu and delta opioid membrane assays); from tissue; host or cells: rat forebrain membranes
The assay can be described thus: delta opioid membrane assay. The class given is binding. The settings on record: at 1 µM.

Assay [6] concerns the target T4, benzodiazepine-peripheral receptor (Rattus norvegicus, UniProt P16257).
T4 construct: rat cerebral cortex (CCKB, PYY, neurotensin, ∝1-adrenergic, ∝2-adrenergic, muscarinic cholinergic, neural benzodiazepine, peripheral benzodiazepine); from tissue; host or cells: rat cerebral cortex membranes
The assay can be described thus: Peripheral benzodiazepine membrane receptor assay. The class given is binding. The conditions noted are these: at 1 µM.

The target of assay [7] is T5, NMB receptors on C-6 glioblastoma cells (Rattus norvegicus, UniProt P24053).
T5 construct: endogenous in cells; host or cells: rat glioblastoma C-6 cells
T5 sequence (P24053 1-390): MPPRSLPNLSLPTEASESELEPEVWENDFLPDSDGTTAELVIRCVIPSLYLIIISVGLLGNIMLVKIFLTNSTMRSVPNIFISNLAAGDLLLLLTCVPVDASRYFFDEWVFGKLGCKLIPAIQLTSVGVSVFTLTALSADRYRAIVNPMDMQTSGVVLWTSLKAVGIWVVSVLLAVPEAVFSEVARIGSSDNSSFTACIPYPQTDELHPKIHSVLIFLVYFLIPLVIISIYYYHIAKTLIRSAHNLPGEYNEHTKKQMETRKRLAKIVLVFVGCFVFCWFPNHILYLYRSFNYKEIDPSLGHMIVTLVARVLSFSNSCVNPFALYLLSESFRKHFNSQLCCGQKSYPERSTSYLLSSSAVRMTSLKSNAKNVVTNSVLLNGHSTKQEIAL
The assay is described as follows: NMB-stimulated [3H]IP in C-6 glioblastoma cells. The class given is cell-based. The method, then:
Total phosphoinositides in C-6 cells and in NMB-R transfected cells were determined as described previously, with minor modifications [Benya, R. V. et al. Mol. Pharmacol. 42:1058 (1992); and Wang, L-H. et al. Biochem. J. 286:641 (1992)]. Cells were grown to confluence in 24-well plates and then loaded with 100 µCi/ml myo-[2-^3H]inositol in Dulbecco's modified essential medium with 2% fetal bovine serum at 37°C for 48 hrs. Cells were washed and incubated in phosphoinositide buffer (standard buffer additionally containing 10 mM LiCl, 20 mM HEPES, 2 mM CaCl2, 2% BSA, and 1.2 mM MgSO4) for 15 min and then […] Reactions were halted using ice-cold 1% HCl in methanol, and the inositol phosphates (IP) were isolated as described previously [Bologna, M. et al. Cancer 63:1714 (1989); and Endo, T. et al. J. Endocrinol. 131:313 (1991)]. Briefly, after loading of the anion exchange column, free [^3H]glycerophosphorylinositol was removed by washing with 5 mM disodium tetraborate in 60 mM sodium formate. Total [^3H]inositol phosphates were then eluted using 100 mM formic acid in 1.0 M ammonium formate as described previously [Benya, R. V. et al. Mol. Pharmacol. 42:1058 (1992); and Wang, L-H. et al. Biochem. J. 286:641 (1992)].

Assay [8] has as its target T6, dopamine2 (Rattus norvegicus, UniProt P61169).
T6 construct: rat corpus striatum (dopamine1 and dopamine2 membrane receptor assays); from tissue; host or cells: rat corpus striatum membranes
The assay can be described thus: dopamine2 membrane receptor assay. The assay is classed as binding. The conditions noted are these: at 1 µM.

For assay [9], the target named is T7, endothelinA (Rattus norvegicus, UniProt P26684).
T7 construct: A10 smooth muscle cells (EtA membrane receptor assay); endogenous in cells; host or cells: A10 smooth muscle cells (membranes)
T7 sequence (P26684 21-426): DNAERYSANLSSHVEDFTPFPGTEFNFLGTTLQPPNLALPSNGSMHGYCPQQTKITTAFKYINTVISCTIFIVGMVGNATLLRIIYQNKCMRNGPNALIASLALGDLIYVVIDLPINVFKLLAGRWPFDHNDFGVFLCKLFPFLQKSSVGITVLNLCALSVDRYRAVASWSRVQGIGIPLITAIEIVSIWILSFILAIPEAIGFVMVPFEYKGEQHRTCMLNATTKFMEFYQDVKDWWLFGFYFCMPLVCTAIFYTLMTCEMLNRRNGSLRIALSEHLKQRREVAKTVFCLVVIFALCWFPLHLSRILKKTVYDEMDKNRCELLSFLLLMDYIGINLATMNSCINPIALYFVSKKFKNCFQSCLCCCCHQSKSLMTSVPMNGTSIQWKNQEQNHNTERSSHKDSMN
The assay is described as follows: EtA membrane receptor assay (A10 smooth muscle cells). The conditions noted are these: at 1 µM. The class given is binding.

In assay [10] the test system is α2- adrenergic. The assay is described as follows: alpha2-adrenergic membrane receptor assay. The class given is binding, rat. The settings on record: at 1 µM.

Each structure is given as a SMILES string. Where a SMILES comes first, the peptide text is derived from it. Bridges are numbered along the chain shown (N, C = ends). [ ]: non-standard residue; d: D form. 2Nal = N[C@@H](Cc1ccc2ccccc2c1)C(=O)O; d2Nal = N[C@H](Cc1ccc2ccccc2c1)C(=O)O

T3 sequence (P33533 whole entry): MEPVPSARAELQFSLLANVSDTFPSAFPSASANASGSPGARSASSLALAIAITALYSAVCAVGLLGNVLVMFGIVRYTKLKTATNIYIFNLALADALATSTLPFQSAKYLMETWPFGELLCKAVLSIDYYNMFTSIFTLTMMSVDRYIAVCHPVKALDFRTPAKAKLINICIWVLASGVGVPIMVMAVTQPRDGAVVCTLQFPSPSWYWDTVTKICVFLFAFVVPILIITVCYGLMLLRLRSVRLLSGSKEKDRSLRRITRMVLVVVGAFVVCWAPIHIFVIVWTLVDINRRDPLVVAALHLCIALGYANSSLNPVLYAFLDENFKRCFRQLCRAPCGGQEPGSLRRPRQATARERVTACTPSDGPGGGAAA
T6 sequence (P61169 whole entry): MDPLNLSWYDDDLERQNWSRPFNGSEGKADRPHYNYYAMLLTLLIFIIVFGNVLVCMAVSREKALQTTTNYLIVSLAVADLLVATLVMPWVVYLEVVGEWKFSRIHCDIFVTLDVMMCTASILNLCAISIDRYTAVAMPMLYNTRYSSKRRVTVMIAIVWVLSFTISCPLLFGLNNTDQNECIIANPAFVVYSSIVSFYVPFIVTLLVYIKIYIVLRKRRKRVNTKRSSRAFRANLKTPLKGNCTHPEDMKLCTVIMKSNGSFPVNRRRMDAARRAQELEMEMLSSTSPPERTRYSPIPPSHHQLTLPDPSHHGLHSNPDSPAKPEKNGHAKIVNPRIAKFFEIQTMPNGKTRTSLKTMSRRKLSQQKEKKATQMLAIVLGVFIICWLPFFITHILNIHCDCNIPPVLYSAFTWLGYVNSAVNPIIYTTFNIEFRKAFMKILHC
T1 sequence (P30551 whole entry): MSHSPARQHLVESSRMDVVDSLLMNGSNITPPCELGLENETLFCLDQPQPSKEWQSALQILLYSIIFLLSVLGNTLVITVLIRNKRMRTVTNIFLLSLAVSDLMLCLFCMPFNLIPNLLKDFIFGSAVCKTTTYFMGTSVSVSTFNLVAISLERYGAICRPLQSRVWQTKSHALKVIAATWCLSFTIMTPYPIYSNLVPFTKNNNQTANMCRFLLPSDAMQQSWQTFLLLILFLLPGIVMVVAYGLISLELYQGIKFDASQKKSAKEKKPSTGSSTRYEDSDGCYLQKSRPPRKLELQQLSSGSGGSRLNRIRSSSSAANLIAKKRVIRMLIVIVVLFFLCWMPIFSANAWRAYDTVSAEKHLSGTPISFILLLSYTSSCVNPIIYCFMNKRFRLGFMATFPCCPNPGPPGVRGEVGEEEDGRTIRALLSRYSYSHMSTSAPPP
T2 sequence (P30553 whole entry): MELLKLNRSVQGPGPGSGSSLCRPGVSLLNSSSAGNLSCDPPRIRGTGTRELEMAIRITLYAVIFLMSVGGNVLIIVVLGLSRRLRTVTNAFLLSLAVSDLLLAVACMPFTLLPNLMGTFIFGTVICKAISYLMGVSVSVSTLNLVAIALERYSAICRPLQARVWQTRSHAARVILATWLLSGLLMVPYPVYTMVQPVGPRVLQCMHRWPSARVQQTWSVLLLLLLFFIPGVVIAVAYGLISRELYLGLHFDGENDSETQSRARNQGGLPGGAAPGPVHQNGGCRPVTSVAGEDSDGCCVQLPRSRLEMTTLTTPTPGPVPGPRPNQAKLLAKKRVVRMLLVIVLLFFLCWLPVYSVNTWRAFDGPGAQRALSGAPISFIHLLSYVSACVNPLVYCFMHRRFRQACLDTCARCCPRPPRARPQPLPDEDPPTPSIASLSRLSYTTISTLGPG
T4 sequence (P16257 whole entry): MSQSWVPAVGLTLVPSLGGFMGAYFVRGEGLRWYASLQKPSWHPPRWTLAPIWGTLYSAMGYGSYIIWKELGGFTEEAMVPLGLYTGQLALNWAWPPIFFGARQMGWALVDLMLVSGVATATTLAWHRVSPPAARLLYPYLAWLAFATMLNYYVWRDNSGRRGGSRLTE

As for `CC(C)[C@@H]1NC(=O)[C@H](CCCCN)NC(=O)[C@@H](Cc2c[nH]c3ccccc23)NC(=O)[C@H](Cc2ccc(O)cc2)NC(=O)[C@@H](NC(=O)[C@H](N)Cc2ccc3ccccc3c2)CSSC[C@@H](C(=O)N[C@@H](Cc2ccc3ccccc3c2)C(N)=O)NC1=O` [Analog #1, D-Nal-Cys-Tyr-D-Trp-Lys-Val-Cys-Nal-NH2] (H-[d2Nal]CY[dW]KVC[2Nal]-NH2; disulfide 2-7; N-terminus assumed), in assay [1], the “inhibition of binding to CCKA” value was “did not inhibit binding”. In assay [2], the “inhibition of binding to PYY” value is given as “did not inhibit binding”. Besides, in assay [3], the “inhibition of binding to TRH” value is given as “did not inhibit binding”. Moreover, in [4], the “inhibition of binding to CCKB” value was “did not inhibit binding”. In assay [5], the “inhibition of binding to delta opioid” value is recorded as “did not inhibit binding”. Moreover, the “inhibition of binding to benzodiazepine peripheral” value in [6] is on record as “did not inhibit binding”. Further, the “[^3H]IP, Peptide Added NMB (10 nM)” value in assay [7] (C-6 glioblastoma cells, analog 10 µM plus NMB 10 nM) was found to be 7.5 ± 1.0 dpm x 10^3. Moreover, in assay [7] (C-6 glioblastoma cells, analog 10 µM, no agonist, control 7.2±1.0), the “[^3H]IP, Peptide Added None” value was 7.4 ± 1.3 dpm x 10^3. In addition, the “effect on NMB-stimulated increases in [^3H]IP in C-6 glioblastoma cells” value in assay [7] (Table 3) was “inhibited”. Further, the “inhibition of binding to dopamine2” value in [8] is reported as “did not inhibit binding”. Also, in [9], the “inhibition of binding to endothelinA” value is “did not inhibit binding”. The “inhibition of binding to α2- adrenergic” value in assay [10] was “did not inhibit binding”.
